The numbers were not newly measured in patent publication US20120277309A1, “METHODS OF CONTROLLING VENOUS IRRITATION ASSOCIATED WITH THE TREATMENT OF A CARDIAC DISORDER” (BAXTER HEALTHCARE S.A., priority 2011, published 2012), which cites them from elsewhere.

Molecules are shown by their SMILES. Where a name gives a salt, the structure may show the parent alone.

For data set [1] the following is noted: packaging insert, Baxter; incidence increases with concentration.
The test system of data set [2] is beta-adrenergic. The following applies: disclosed in WO 88/01614.

For the molecule `COC(=O)CCc1ccc(OCC(O)CNC(C)C)cc1` (racemic) [R,S-esmolol hydrochloride, methyl-3-[4-(2-hydroxy-3-isopropylamino)propoxy]phenylpropionate hydrochloride], the “Venous irritation in patients on infusion” value in data set [1] is on record as “A significant number of patients experience venous irritation at the infusion site”.

Regarding `COC(=O)CCc1ccc(OC[C@@H](O)CNC(C)C)cc1.Cl` (single isomer, unassigned) [S-isomer of esmolol hydrochloride], in data set [2], the “Potency as a beta-adrenergic-blocking agent relative to an equivalent amount of the racemic mixture” value is “about twice”.
